Results published in publication PMC7738880, “Identification of novel CD44v6-binding peptides that block CD44v6 and deliver a pro-apoptotic peptide to tumors to inhibit tumor growth and metastasis in mice” (Theranostics, 2021).
Residues, ends and D or L forms follow the SMILES beside them.

Tests used:
[1] = system: MDA-MB231 cells; assay: Intracellular trafficking with MitoTracker and LysoTracker; format: cell-based, human; settings: peptide 10 µM, 37 °C, 2-4 h, confocal
Protocol: To examine the intracellular trafficking of peptides cells were incubated with peptides (10 µM) at 37 °C for 2 h and stained with MitoTracker Deep Red FM (ThermoFisher Scientific), a mitochondrial marker. In another set of experiments, cells were incubated with peptides at 37 °C for 4 h and stained with LysoTracker Red DND-99 (ThermoFisher Scientific), a late endosome/lysosome marker. After staining, cells were fixed with 4% paraformaldehyde for 10 min at room temperature, stained with DAPI, and then mounted using ProLong gold anti-fade reagent (ThermoFisher Scientific). Subcellular fluorescence was detected using a confocal microscope (Zeiss).

[2] = system: 4T1-luc cells; assay: 4T1-luc orthotopic spontaneous metastasis model; format: in vivo; settings: 10 mg/kg i.v. thrice weekly for 3 weeks; for hematologic parameters and liver and kidney functional marker levels: n = 5/group; for luminescence signals and total photon flux from the whole body: n = 10 per group; for luminescence signals and total photon flux from the whole body / TUNEL-positive apoptotic cells in primary tumor tissues / number of metastatic tumor nodules / percent survival / tumor volume / tumor weight: more efficiently than combined NLN or NEW and KLA
Protocol: (§1) 4T1-luc cells (1 × 10^6 cells) were orthotopically inoculated into the mammary fat pads in 6-week-old female BALB/c mice. Panc-1 cells (1 × 10^6 cells) were subcutaneously inoculated into lower right flank in 6-week-old female BALB/c nude mice To monitor 4T1-luc tumor growth, mice were intraperitoneally injected with D-luciferin (150 mg/kg body weight), incubated for 10 min, and subjected to a whole-body bioluminescence imaging using the IVIS imaging system (Perkin Elmer). At two weeks after the inoculation, mice were randomly sorted into groups based on the luminescence intensity (4T1-luc) or tumor size (Panc-1). CD44v6-binding peptides were administered intravenously to 4T1 tumor-bearing mice (n = 6 per group) through the tail vein (14.2 mg/kg body weight, thrice weekly for three weeks) alone or in combination with crizotinib. Crizotinib in 5% DMSO was administered orally (12.5 and 25 mg/kg body weight, twice weekly for three weeks). CD44v6-targeted pro-apoptotic peptides or CD44v6-binding peptides and pro-apoptotic peptide in combination were intravenously administered to 4T1 or Panc-1 tumor-bearing mice (n = 10 per group) through the tail vein (10 mg/kg body weight, thrice weekly for 3 weeks). Primary tumor growth was monitored by measuring tumor volumes using a caliper and total photon flux in the whole body using the IVIS imaging system. The body weights and tumor ulceration were monitored throughout the treatment period. At the end of the treatments, half of the mice were used for the collection of blood, sacrificed, and the primary tumor weights and numbers of metastatic tumor nodules in the isolated lungs were determined. The remaining mice were maintained until death to determine the survival rates. The hematological parameters and liver and kidney function markers in plasma and serum samples were analyzed as described above. The normal ranges of hematological parameters of the BALB/c mouse and BALB/c nude mouse were obtained from Charles River Laboratories website (www.criver.com).

[3] = system: Panc-1 cells; assay: Panc-1 subcutaneous spontaneous metastasis model; format: in vivo, BALB/c nude mouse; settings: 10 mg/kg i.v. thrice weekly for 3 weeks; more efficiently than combined NLN or NEW and KLA
Protocol: as §1

[4] = system: 4T1 cells; assay: Annexin V/propidium iodide apoptosis assay, 4T1; format: cell-based, mouse; settings: 2 h, versus combined NLN or NEW and KLA
Protocol: (§2) For apoptosis assays, cells were plated in 6-well plates at a density of 5 × 10^5 cells per well overnight and treated with different concentrations of peptides (0, 2, 4, 8, 16, 32, 64, 128, and 256 µM) at 37 °C for 2 h. Cells were harvested, washed, and mixed with annexin V binding buffer. Then, 1 μg/mL of propidium iodide and 5 μL of APC annexin V reagent (ThermoFisher Scientific, Waltham, MA) were added to stain necrotic and apoptotic cells. Percent of annexin V-positive and propidium iodide-negative cells were measured using flow cytometry.

[5] = system: Panc-1 cells; assay: Annexin V/propidium iodide apoptosis assay, Panc-1; format: cell-based, human; settings: 2 h, versus combined NLN or NEW and KLA
Protocol: as §2

[6] = system: MDA-MB231 cells; assay: Annexin V/propidium iodide apoptosis assay, MDA-MB231; format: cell-based, human; settings: 2 h, versus combined NLN or NEW and KLA
Protocol: as §2

[7] = system: MDA-MB231-luc cells; assay: MDA-MB231-luc experimental lung metastasis model; format: in vivo
Protocol: A mouse model of lung metastasis of breast cancer was prepared by injecting 1 × 10^6 MDA-MB231-luc cells into 6-week-old female BALB/c nude mice via tail vein. To monitor the localization of the tumor cells in the lungs, the mice were injected intraperitoneally with D-luciferin at a dose of 150 mg/kg body weight and subjected to a whole-body bioluminescence imaging using IVIS imaging system (Perkin Elmer) after a 10-min resting period. Mice (n = 10 per group) were randomly assigned to groups based on the luminescence intensity. At 1 h after tumor cell injection, tumor-bearing mice received intravenous injections of CD44v6-binding peptides through the tail vein (14.2 mg/kg body weight, thrice weekly for 3 weeks) alone or in combination with orally administered crizotinib in 5% dimethyl sulfoxide (DMSO) (25 mg/kg of body weight, twice weekly for 3 weeks) as previously described, [29]. Metastatic tumor growth after treatments was monitored by measuring the total photon flux (number of photons/second) in the whole body using the IVIS imaging system. The body weights of mice and tumor ulceration were monitored throughout the treatment period. At the end of the treatment period, half of the mice (n = 5 per group) were used for the collection of blood, sacrificed, the lungs were harvested and weighed, and the numbers of metastatic tumor nodules in the lungs were counted. The remaining mice (n = 5 per group) were maintained until death to determine the survival rates. For the analysis of hematological parameters, 1 mL of blood was collected from each mouse and separated into 500 µL aliquots used to prepare serum and plasma. Serum was obtained by centrifuging clotted blood at 4 °C twice, followed by filtration (pore size: 0.22 µm). Plasma was obtained by centrifuging ethylenediaminetetraacetic acid-treated samples. Hematological parameters and liver and kidney function markers were measured by DGMIF (Daegu, Korea).

[8] = target: CD44v6, endogenous in MDA-MB231 human breast tumor cells (human (endogenous in MDA-MB231)); assay: saturation binding to cells; saturation binding assays on MDA-MB231, 4T1, Panc-1 and MCF7 cells (Figure S2A); method and label of the peptide not given
Sequence of CD44v6, endogenous in MDA-MB231 human breast tumor cells (human (endogenous in MDA-MB231)) (P16070 21-742): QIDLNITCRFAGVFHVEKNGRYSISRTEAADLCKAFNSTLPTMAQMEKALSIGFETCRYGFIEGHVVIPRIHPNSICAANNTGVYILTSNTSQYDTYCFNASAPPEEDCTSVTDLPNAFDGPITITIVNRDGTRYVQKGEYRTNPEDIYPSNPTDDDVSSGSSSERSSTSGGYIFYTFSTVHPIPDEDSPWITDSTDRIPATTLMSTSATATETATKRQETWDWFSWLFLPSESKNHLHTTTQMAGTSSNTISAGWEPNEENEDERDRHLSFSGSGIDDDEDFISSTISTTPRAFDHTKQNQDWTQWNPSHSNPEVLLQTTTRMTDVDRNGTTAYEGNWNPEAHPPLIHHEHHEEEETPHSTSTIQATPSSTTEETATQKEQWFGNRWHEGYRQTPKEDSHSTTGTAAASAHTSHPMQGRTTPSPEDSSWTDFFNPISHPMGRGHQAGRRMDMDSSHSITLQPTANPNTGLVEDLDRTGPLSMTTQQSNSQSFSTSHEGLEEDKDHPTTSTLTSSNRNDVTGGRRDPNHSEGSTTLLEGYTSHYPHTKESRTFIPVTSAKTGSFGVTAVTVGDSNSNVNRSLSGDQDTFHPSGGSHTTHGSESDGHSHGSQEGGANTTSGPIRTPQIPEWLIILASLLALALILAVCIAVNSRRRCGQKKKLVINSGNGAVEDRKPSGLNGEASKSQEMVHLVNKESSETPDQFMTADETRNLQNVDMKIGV

Row | Kd [8] | Molecule | intracellular localization [1] | hematologic parameters and liver and kidney functional marker levels [2] | luminescence signals and total photon flux from the whole body [2] | TUNEL-positive apoptotic cells in primary tumor tissues [2] | number of metastatic tumor nodules [2] | percent survival [2] | tumor volume [2] | tumor weight [2] | percent survival and TUNEL-positive apoptotic cells in tumor tissues [3] | tumor growth and metastasis to the lungs [3] | induction of apoptosis, 4T1 [4] | induction of apoptosis, Panc-1 [5] | induction of apoptosis, MDA-MB231 [6] | growth of MDA-MB231-luc metastases in the lungs ([7]; crizotinib 25 mg/kg oral twice weekly for 3 weeks) | survival rate ([7]; peptide 14.2 mg/kg i.v. thrice weekly or crizotinib 25 mg/kg oral twice weekly, 3 weeks, single treatment)
1 |  | CC(C)C[C@H](NC(=O)[C@H](CCCCN)NC(=O)CNC(=O)CNC(=O)CNC(=O)[C@H](CS)NC(=O)[C@H](CO)NC(=O)[C@H](CCCCN)NC(=O)[C@H](CC(C)C)NC(=O)[C@H](CCC(N)=O)NC(=O)[C@H](Cc1c[nH]c2ccccc12)NC(=O)[C@H](CCC(=O)O)NC(=O)[C@H](CC(N)=O)NC(=O)[C@@H](N)CS)C(=O)N[C@@H](C)C(=O)N[C@@H](CCCCN)C(=O)N[C@@H](CC(C)C)C(=O)N[C@@H](C)C(=O)N[C@@H](CCCCN)C(=O)N[C@@H](CCCCN)C(=O)N[C@@H](CC(C)C)C(=O)N[C@@H](C)C(=O)N[C@@H](CCCCN)C(=O)N[C@@H](CC(C)C)C(=O)N[C@@H](C)C(=O)N[C@@H](CCCCN)C(=O)O [NEW-KLA] (H-CNEWQLKSCGGGKLAKLAKKLAKLAK-OH) | closely co-localized with mitochondria and lysosomes | within or close to the normal ranges | decreased | increasing | reduced | increasing | reduced | reduced | increased | inhibited | more efficiently than the combined treatment | more efficiently than the combined treatment | more efficiently than the combined treatment |  | 
2 |  | CC[C@H](C)[C@H](NC(=O)[C@@H](NC(=O)[C@H](CC(N)=O)NC(=O)[C@H](CC(C)C)NC(=O)[C@H](CC(N)=O)NC(=O)[C@@H](N)CS)[C@@H](C)O)C(=O)N[C@@H](CC(=O)O)C(=O)N[C@H](C(=O)N[C@@H](CS)C(=O)NCC(=O)NCC(=O)NCC(=O)N[C@@H](CCCCN)C(=O)N[C@@H](CC(C)C)C(=O)N[C@@H](C)C(=O)N[C@@H](CCCCN)C(=O)N[C@@H](CC(C)C)C(=O)N[C@@H](C)C(=O)N[C@@H](CCCCN)C(=O)N[C@@H](CCCCN)C(=O)N[C@@H](CC(C)C)C(=O)N[C@@H](C)C(=O)N[C@@H](CCCCN)C(=O)N[C@@H](CC(C)C)C(=O)N[C@@H](C)C(=O)N[C@@H](CCCCN)C(=O)O)[C@@H](C)O [NLN-KLA] (H-CNLNTIDTCGGGKLAKLAKKLAKLAK-OH) | closely co-localized with mitochondria and lysosomes | within or close to the normal ranges | decreased | increasing | reduced | increasing | reduced | reduced | increased | inhibited | more efficiently than the combined treatment | more efficiently than the combined treatment | more efficiently than the combined treatment |  | 
3 |  | C[C@@H](Oc1cc(-c2cnn(C3CCNCC3)c2)cnc1N)c1c(Cl)ccc(F)c1Cl [crizotinib, reference compound] |  |  |  |  |  |  |  |  |  |  |  |  |  | inhibited | increased the survival rate
4 | 18 µM | CNEWQLKSC [… peptide (NEW), label not stated] |  |  |  |  |  |  |  |  |  |  |  |  |  |  | 
5 | 12 µM | CNLNTIDTC [… peptide (NLN), label not stated] |  |  |  |  |  |  |  |  |  |  |  |  |  |  | 
